Here are results for one compound from ChEMBL document CHEMBL1145651, “A constituent of Pterocarpus marsupium, (-)-epicatechin, as a potential antidiabetic agent” (1983).

Holding throughout (type): functional
Common to all, as to settings: route intraperitoneal

The subject of experiment [1] is Rattus norvegicus. The experiment in a line: Antihyperglycemic activity in Wistar rat assessed as decrease in alloxan-induced blood glucose level at 30 mg/kg, ip pretreated 24 hrs before alloxan challenge.
The subject of experiment [2] is Rattus norvegicus. Description: Antihyperglycemic activity in Wistar rat assessed as decrease in alloxan-induced blood glucose level at 30 mg/kg, ip administered 72 to 288 hrs after alloxan challenge.
Experiment [3] has as its system Rattus norvegicus. Description: Antihyperglycemic activity in Wistar rat assessed as decrease in alloxan-induced blood glucose level at 30 mg/kg, ip administered 168 hrs after alloxan challenge.
Experiment [4] has as its system Rattus norvegicus. Description: Antihyperglycemic activity in Wistar rat assessed as decrease in alloxan-induced blood glucose level at 30 mg/kg, ip administered 288 hrs after alloxan challenge.
In experiment [5] the test system is Rattus norvegicus. Description: Antihyperglycemic activity in Wistar rat assessed as decrease in alloxan-induced blood glucose level at 30 mg/kg, ip administered 120 hrs after alloxan challenge.
Experiment [6] deals with Rattus norvegicus. Description: Antihyperglycemic activity in Wistar rat assessed as decrease in alloxan-induced blood glucose level at 30 mg/kg, ip administered 72 hrs after alloxan challenge.

Regarding `Oc1cc(O)c2c(c1)O[C@H](c1ccc(O)c(O)c1)[C@H](O)C2` [(-)-EPICATECHIN], the Activity in the experiment on Rattus norvegicus [1] is 111 mg/dL; in the experiment on Rattus norvegicus [2], 129 mg/dL; in the experiment with Rattus norvegicus [3], 128 mg/dL; with Rattus norvegicus [4], 117 mg/dL; in the experiment on Rattus norvegicus [5], 120 mg/dL; in the experiment on Rattus norvegicus [6], 138 mg/dL.
